How the values were obtained:
Type in all cases: in vivo, BALB/c mice
[1] = system: anti-OVA-specific IgG1 and IgG2a subclass antibody production; assay: Evaluation test of adjuvant activity (overall conclusion from anti-OVA IgG1 and IgG2a production); settings: compound 0.256 μmol in 5% αCD-added saline with OVA 5 μg, dorsal-subcutaneous
Description: 8-Week-old female BALB/c mice were divided into groups (N=6), and each group was primarily immunized by dorsal-subcutaneous administration of (1) ovalbumin (OVA) (5 μg) dissolved in saline as an antigen (OVA single administration group), (2) OVA 5 μg and Addavax™ (mixed with saline at 1:1) dissolved in saline (Addavax™ administration group) as positive control adjuvant, (3) OVA 5 μg and SZ137 0.256 μmol dissolved or dispersed in 5% α-cyclodextrin (hereinafter to be simply referred to as αCD)-added saline (SZ137 administration group), (4) OVA (5 μg) and SZ138 (0.256 μmol) dissolved or dispersed in 5% αCD-added saline (SZ138 administration group), (5) OVA (5 μg) and SZ142 (0.256 μmol) dissolved or dispersed in 5% αCD-added saline (SZ142 administration group), (6) OVA (5 μg) and SZ144 (0.256 μmol) dissolved or dispersed in 5% αCD-added saline (SZ144 administration group), (7) OVA (5 μg) and SZ145 (0.256 μmol) dissolved or dispersed in 5% αCD-added saline (SZ145 administration group), (8) OVA (5 μg) and SZ146 (0.256 μmol) dissolved or dispersed in 5% αCD-added saline (SZ146 administration group), (9) OVA (5 μg) and SZ147 (0.256 μmol) dissolved or dispersed in 5% αCD-added saline (SZ147 administration group), (10) OVA (5 μg) and SZ148 (0.256 μmol) dissolved or dispersed in 5% αCD-added saline (SZ148 administration group), each per mouse. Two week later, the secondary immunization was carried out by dorsal-subcutaneous administration of solutions or dispersions similar to those of the above-mentioned (1)-(10) again. […]
To a 96 well plate was added 5 μg/ml OVA at 100 µl/well, and the mixture was incubated at 4° C. overnight. After incubation, the mixture was washed three times with 200 μl of PBS-T (PBS (phosphate buffered saline)+0.05% (v/v) Tween 20) per well, and blocked with 100 μl of 5% FCS (fetal calf serum)/PBS solution per well at room temperature for 1-2 hr. Thereafter, the mixture was washed three times with PBS-T (200 μl/well), a diluted serum sample (100 l/well) or the same amount of 5% FCS/PBS solution as a control was added, and the mixture was incubated at 37° C. for 1 hr. To calculate concentration of the antibody, the standard of an anti-OVA-specific IgG1 subclass antibody diluted with 2% FCS/PBS solution was added at 100 ng/ml, 50 ng/ml, 25 ng/ml, 12.5 ng/ml, 6.25 ng/ml, 3.125 ng/ml, 1.56 ng/ml, 0.781 ng/ml, 0.391 ng/ml, 0.195 ng/ml, 0.098 ng/ml, 0 ng/ml, per 1 well. When an anti-OVA-specific IgG2a subclass antibody was measured, the standard of an anti-OVA-specific IgG2a subclass antibody was added at 50 ng/ml, 25 ng/ml, 12.5 ng/ml, 6.25 ng/ml, 3.125 ng/ml, 1.56 ng/ml, 0.781 ng/ml, 0.391 ng/ml, 0.195 ng/ml, 0.098 ng/ml, 0.049 ng/ml, 0 ng/ml, per 1 well. Thereafter, similar to the samples, the mixture was washed five times with PBS-T (200 μl/well), a diluted biotinylated anti-mouse IgG1 antibody and IgG2a antibody were added (100 μl/well), and the mixture was incubated at 37° C. for 45 min. Thereafter, the mixture was washed five times with PBS-T (200 μl/well), a diluted anti-biotin-HRP antibody was added (100 μl/well), and the mixture was incubated at 37° C. for another 30 min. Thereafter, the mixture was washed five times with PBS-T (200 μl/well), TMB substrate solution was added (100 μl/well), and the mixture was incubated at room temperature for 10-15 min. Thereafter, a reaction quenching liquid (2N sulfuric acid solution) was added (50 l/well) to discontinue a color developing reaction, and the absorbance (OD Value=450 nm) was measured by a microplate reader. A standard curve was drawn from the measured OD values, and the concentration was calculated. […]

[2] = system: anti-OVA-specific IgG1 subclass antibody; assay: Adjuvant activity test: anti-OVA-specific IgG1 subclass antibody in serum of OVA-immunized mice (ELISA); settings: after primary immunization, serum 2 weeks later; OVA 5 μg + compound 0.256 μmol in 5% αCD-added saline (Addavax mixed with saline at 1:1), dorsal-subcutaneous; compared to OVA single administration group
[3] = system: anti-OVA-specific IgG2a subclass antibody; assay: Adjuvant activity test: anti-OVA-specific IgG2a subclass antibody in serum of OVA-immunized mice (ELISA); settings: after primary immunization, serum 2 weeks later; OVA 5 μg + compound 0.256 μmol in 5% αCD-added saline (Addavax mixed with saline at 1:1), dorsal-subcutaneous; compared to OVA single administration group
[4] = conclusion from IgG1/IgG2a after primary immunization

SMILES | adjuvant activity [1, 4] | anti-OVA-specific IgG1 subclass antibody production [2] | anti-OVA-specific IgG2a subclass antibody production [3] | adjuvant activity ([1]; conclusion from IgG1/IgG2a after secondary immunization)
CCCCCCCCCCCCCCCCCCCCCC(=O)NCCCCCNC(=N)N.Cl [SZ176, N-(5-guanidinopentyl)docosanamide] | have an adjuvant activity | tended to increase | significantly increased | –
CCCCCCCCCCCCCCCC(=O)NCCCCCNC(=N)N [SZ175, N-(5-guanidinopentyl)hexadecanamide] | have an adjuvant activity | tended to increase | significantly increased | –
CCCCCCCCCCCCNC(=O)[C@H](CCCNC(=N)N)NC(=O)C(=O)CCCCCC.Cl [SZ177, N-[(1S)-1-(dodecylcarbamoyl)-4-guanidino-butyl]-2-oxo-octanamide] | have an adjuvant activity | tended to increase | significantly increased | –
CCCCCCCCCCCCCCCCCCOC(=O)N[C@@H](CCCNC(=N)N)C(=O)NCCCCCCCCCCCC.Cl [SZ186, octadecyl N-[(1S)-1-(dodecylcarbamoyl)-4-guanidino-butyl]carbamate hydrochloride] | have an adjuvant activity | significant enhancement | significant enhancement | have an adjuvant activity
CCCCCCCCCCCCCCCCCCCCCC(=O)N[C@@H](CSSC[C@H](NC(=O)CCCCCCCCCCCCCCCCCCCCC)C(=O)NCCCCCCCCCCCC)C(=O)NCCCCCCCCCCCC [SZ173, N-[(1R)-1-[[[(2R)-2-(docosanoylamino)-3-(dodecylamino)-3-oxo-propyl]disulfanyl]methyl]-2-(dodecylamino)-2-oxo-ethyl]docosanamide] | has an adjuvant activity | showed a tendency to increase | significantly increased | –
CCCCCCCCCCCCNC(=O)[C@H](CCCNC(=N)N)N(Cc1ccccc1)Cc1ccccc1 [SZ174, (2S)-2-(Dibenzylamino)-N-dodecyl-5-guanidino-pentanamide] | have an adjuvant activity | tended to increase | significantly increased | –

— patent US20180311342A1, “IMMUNOSTIMULATING AGENT” (AJINOMOTO CO., INC., priority 2017, published 2018)
